Results published in US5057495A, “Atrial hypotensive peptide” (Queen's University at Kingston, priority 1988, dated 1991).
“Also recorded” adds a separate entry of the source. Bridge positions count the residues as written; N and C are the ends. Peptide text beside a SMILES is read from it.

Key:
[1] = tested on: assay rats anesthetized with sodium pentobarbital; assay: I.V. bolus injection into anesthetized bioassay rats: cardiovascular and renal responses; type: in vivo, rat; details: 3 nmol bolus injection
Method: Experiments were performed using male Sprague-Dawley rats, ranging in weight from 270-362 g. The rats were anesthetized by an intraperitional injection of sodium pentobarbital (70 mg.kg-1; MTC Pharmaceuticals, Hamilton, Ont.). Additional small amounts of anesthetic were administered as required in the course of the experiment. Body temperature was maintained by a heating lamp and rectal temperature monitored by a rectal probe. After installing a tracheal cannula, a femoral vein was cannulated and a priming infusion of saline (0.9% NaCl) was administered over a 20 min period (1.1 ml); this was followed by a maintenance saline infusion of 1.2 ml.h-1. The femoral artery was then cannulated for blood pressure measurement (Statham pressure transducer, model P23Db). A catheter was also advanced via the right external jugular vein towards the right heart for bolus injections of vehicle, ANF or the atrial peptide of the present invention (AHP). After tying off the penis, the bladder was cannulated for urine collection. […] The EKG was recorded for determination of heart rate.
Urine was collected in preweighed vials and volume calculated by weighing. […]
Zero time was established by 40-60 mins from the beginning the priming saline infusion. […] Cardiovascular measurements were analyzed at 5 min intervals during control and at 1, 5, 10, 15 and 20 mins following administration of injectate. […]

[2] = tested on: antiserum to iso-rANP(1-20) (P2A); assay: Double immunodiffusion / cross reactivity of antiserum raised against P2A; type: binding, rabbit

Row | Molecule | diuretic, natriuretic, hypotensive and bradycardic response of ring peptides (FIG. 5) [1] | reaction with antiserum against P2A (precipitin lines / cross reactivity) [2]
1 | CC[C@H](C)[C@@H]1NC(=O)[C@H](CCCNC(=N)N)NC(=O)[C@H](CC(=O)O)NC(=O)[C@H]([C@@H](C)CC)NC(=O)[C@H](CCCCN)NC(=O)[C@H](CCC(N)=O)NC(=O)CNC(=O)[C@H](Cc2ccccc2)NC(=O)[C@@H](N)CSSC[C@@H](C(=O)O)NC(=O)CNC(=O)[C@H](CC(C)C)NC(=O)[C@H](CCCNC(=N)N)NC(=O)[C@H](CO)NC(=O)[C@H](C(C)C)NC(=O)[C@H](C)NC(=O)CNC1=O [Iso-rANP(23-39)] (H-CFGQKIDRIGAVSRLGC-OH; disulfide 1-17) | significant diuretic, natriuretic, hypotensive and bradycardin response | 
2 | rANP(23-39): ring portion of rANP [reference compound] | substantially biologically inactive | 
3 | pro-ANP: precursor of ANP, tested for cross reactivity with the antiserum (protein, UniProt P01161 25-152, looked up, pro-form) pro-form: NPVYSAVSNTDLMDFKNLLDHLEEKMPVEDEVMPPQALSEQTDEAGAALSSLSEVPPWTGEVNPSQRDGGALGRGPWDPSDRSALLKSKLRALLAGPRSLRRSSCFGGRIDRIGAQSGLGCNSFRYRR |  | No cross reactivity; also recorded: did not cross-react
